{"source": "paper PMC4130638", "about": "“Structure of a Stapled Peptide Antagonist Bound to Nutlin-Resistant Mdm2” (PLoS ONE, 2014)", "origin": "cited, not measured here", "key": {"[1]": {"test_system": "Mdm2 Q24R (N-terminal domain)", "details": "Q24R mutation in N-terminal domain of Mdm2"}, "[2]": {"test_system": "Mdm2 M62A (N-terminal domain)", "details": "M62A mutation in N-terminal domain of Mdm2"}}, "note": "“Also recorded” adds a separate entry of the source.", "data": [{"substance": "Nutlin-3a", "values": [{"measurement": "binding affinity for Mdm2 Q24R", "setting": "[1]", "result": "selectively reducing affinity for Nutlin but not p53"}, {"measurement": "binding affinity for Mdm2 M62A", "setting": "[2]", "result": "precludes binding of Nutlin, but not p53; also recorded: selectively reducing affinity for Nutlin but not p53; also recorded: significantly impairing binding"}]}]}
